Where two headings read alike, the source gives them in different places.
Tests used:
[1] = molecular target: T1, Human CB1 Receptor (Homo sapiens, UniProt P21554); assay: [35S]GTPγS-binding assay, hCB1; assay type: biochemical; settings: NB = no binding; for Emax: upper plateau of curve
T1 construct: expressed in transfected cells; host or cells: HEK-293 cells (membranes)
Method: (§1) Functional activity of compounds of the invention toward the cannabinoid receptors was determined by stimulation of [^35S]-GTPγS binding using membranes from HEK-293 cells expressing the hCB1 receptor and membranes expressing the hCB2 receptor derived from either Sf9 (PerkinElmer) or from HEK-293 cells. Activities were compared to that of the known cannabinoid full agonist CP55940 (Alexis). The purpose of this experiment is to determine the potency of the compounds of the invention as agonists or antagonists toward each of the receptor tested.
(§2) [^35S]-GTPγS binding reactions were performed at 30° C. in 96-well plates containing 5-10 μg membrane protein suspended in 0.1 ml binding buffer [20 mM HEPES-NaOH, pH 7.4, 5 mM MgCl2, 100 mM NaCl, 0.2% (w/v) bovine serum albumin] supplemented with 50 μM GDP and 0.06 nM-10 μM of the compound being tested. Binding was initiated by the addition of [^35S]GTPγS (0.3 nM final concentration). Incubations were performed for 90 minutes and were terminated by filtration on GF/C filter plates (PerkinEimer). Filters were washed ten times with ice-cold wash buffer (20 mM HEPES-NaOH, pH 7.4, 10 mM sodium pyrophosphate). Non-specific binding was measured in the presence of 15 μM GTPγS.
(§3) Assays were performed in duplicates. Data was analyzed by plotting on the X axis the log concentration against percent of specific [^35S]GTPγS binding out of basal [^35S]GTPγS binding on the Y axis, non-linear regression is then performed using GraphPad Prism, version 3.0 (GraphPad, San Diego, Calif.) to calculate the EC50 and Emax of the compound. The EC50 value represents the concentration at which there is 50% [^35S]GTPγS binding and the Emax value the upper plateau of the curve.

[2] = molecular target: T2, Human CB2 Receptor (Homo sapiens, UniProt P34972); assay: [35S]GTPγS-binding assay, hCB2; assay type: biochemical; settings: for EC50 / Emax / agonistic activity toward cannabinoid receptors (in words): GTPγS; for EC50 / Emax: Human CB2 Receptor, NB = no binding; for Emax: upper plateau of curve; for agonistic activity toward cannabinoid receptors (in words): hCB1 and hCB2; for selectivity toward CB2: GTPγS agonism, CB2 versus CB1
T2 construct: host or cells: Sf9 or HEK-293 cells (membranes)
T2 sequence (P34972 whole entry): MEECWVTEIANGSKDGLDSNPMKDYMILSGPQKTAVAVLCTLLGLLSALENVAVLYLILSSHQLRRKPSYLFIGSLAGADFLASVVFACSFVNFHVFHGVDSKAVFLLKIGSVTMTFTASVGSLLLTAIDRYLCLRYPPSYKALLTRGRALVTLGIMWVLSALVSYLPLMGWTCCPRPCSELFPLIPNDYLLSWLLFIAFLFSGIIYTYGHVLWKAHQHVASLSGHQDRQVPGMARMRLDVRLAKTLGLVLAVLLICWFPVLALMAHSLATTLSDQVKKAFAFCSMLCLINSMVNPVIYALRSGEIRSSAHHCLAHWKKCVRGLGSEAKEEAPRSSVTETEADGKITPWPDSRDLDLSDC
Method: as §1, §2, §3

[3] = system: visceral pain writhing responses; assay: Visceral pain, acetic acid induced writhing responses; assay type: in vivo, Male ICR mice; settings: Mus musculus, iv, single dose 2 mg/kg i.v., compared to untreated group; read-out: Percent Inhibition of Visceral Pain Writhing Responses
Method: Male ICR mice (average body weight 25 g, Harlan, Israel) were pretreated by i.v. injection at volume dose of 5 ml/kg of vehicle, control and test compounds at various doses. Other routes of administration were tested for selected compounds including i.m. or s.c. injections at volume dose of 2.5 ml/kg and p.o. gavage at volume dose of 5 ml/kg. Compounds were dissolved in CREMOPHOR®:Ethanol and diluted 1:20 in saline prior to injection or gavage. Compounds administered i.v. were injected fifteen minutes before pain induction, whereas compounds administered i.m., s.c. or p.o. were supplied thirty minutes before pain induction, unless otherwise indicated. Each treatment group, except for controls comprising at least 30 animals, was composed of at least 6 animals. Fifteen or thirty minutes after drug administration, depending on the route of administration, the mice were injected i.p. with 10 ml/kg of 0.6% acetic acid and the number of visceral pain related behaviors (writhing movements globally defined as WR, i.e. stretching, contractions of the abdomen accompanied by an elongation of the body and extension of the hind limbs) was counted over a period of 5 minutes, starting 5 minutes after the acetic acid administration. These visceral pain related behaviors were globally defined as writhing responses (WR). The results are expressed as mean number of writhing responses ±SEM. Data were analyzed using analysis of variance (ANOVA) followed by post-hoc Fisher test.

[4] = system: carrageenan induced inflammatory pain and paw edema; assay: Inflammatory pain and paw edema induced by carrageenan; assay type: in vivo, Male Sprague Dawley rats; settings: Rattus norvegicus, ip, 3 hours; for inhibition in vivo at 3 mg/kg: 3 mg/kg i.p. (one asterisk)
Method: Male Sprague Dawley rats (average body weight 200 g, Harlan, Israel) were transiently sedated by placement on dry ice for the duration of the injections. Rats were injected subcutaneously, in the subplantar region of one (right) paw with 0.1 ml of 2% w/v λ Carrageenan in sterile saline. […] Test compounds were, unless otherwise stated, administered i.p. at initial single dose of 3, 10 or 20 mg/kg, and volume dose of 5 ml/kg, immediately after the carrageenan injection. Selected compounds were also tested p.o. following oral gavage. Vehicle and celecoxib treated animals were used as controls. Each treatment group comprised at least seven animals.
Before induction of inflammatory pain and three hours after injection, the animals reactions to pain stimuli were tested in two systems. The first stimulus was thermal and assessed by the Plantar Test according to Hargreaves, using Ugo Basile Model 7370. The scale was set to an intensity of 50 arbitrary units. The latency time till the animal lift a paw as a reaction to the thermal stimulus was recorded for both the inflamed and non-inflamed hind paws. The second stimulus was mechanical (tactile) and assessed using a Dynamic Plantar Sesthesiomether (Ugo Basile Model 73400-002). […] Finally, the impact on paw edema was assessed. Paw thickness was measured using a dial thickness gauge (Spring-dial, constant low pressure gauge, Mitutoyo, TG/L-1, 0.01 mm) and paw volume was measured using a plethysmometer (model #7150, Ugo Basile, Italy). At the end of the study, animals were euthanized.
The results are measured as the differences between the two hind paws at time 0 and 3 hours both as ALT, for the latency time in the thermal part of the study, and as ΔForce, for the mechanical part of the study. The paw volume is expressed as percent from vehicle treated animals. Results are expressed as mean±SEM for each treatment group and the differences among those groups are analyzed by analysis of variance (ANOVA) followed by post-hoc Tukey's test.
Results refer to i.p. treatment with 10 mg/kg. Results marked with one asterisk refer to a dose 3 mg/kg, whereas two asterisks refer to 20 mg/kg. Celecoxib is included as reference.

[5] = system: IL-1β; assay: Gene expression in LPS activated RAW 264.7 macrophages, IL-1β; assay type: cell-based, mouse; settings: RAW 264.7, 10 μM, LPS 1 μg/ml, RNA 3 hrs after activation, vs vehicle treated activated cells
Method: (§4) RAW 264.7 macrophages, a mouse cell line (ATCC # TIB 71), were grown in Dulbecco's modified Eagle's medium (DMEM) with 4 mM L-glutamine adjusted to contain 1.5 g/L sodium bicarbonate, 4.5 g/L glucose, and 10% heat inactivated fetal bovine serum. Cells were grown in tissue culture flasks and seeded at appropriate density into 6 wells tissue culture plates. Four million Raw cells in half a milliliter were stimulated with 1 μg/ml LPS E. coli 055:B5 (DIFCO Laboratories). The mouse macrophages were pre-treated for one hour with controls or 10 μM of test compounds, and later on activated with LPS. RNA samples were extracted from the cells 3 hrs after activation and gene expression levels were analyzed by real-time RT-PCR. In parallel, supernatants were collected and secretion of inflammatory mediators was analyzed using ELISA techniques according to the instructions of the kit manufacturer.
(§5) Total RNA is prepared using SV total RNA isolation system (Promega). The cells were homogenized in lysis buffer. The lysates were transferred to an RNA isolation column, treated with DNAse, washed and eluted according to kit instructions. RNA concentrations were determined using GeneQuant II (Pharmacia-Amersham). Complementary DNA (cDNA) was synthesized from total RNA using […] II reverse transcriptase (Life Technologies). 2 μg of total RNA were combined with an oligo (dT)15 primer, 0.5 mM dNTP mix, 8 units of reverse transcriptase and other reaction components up to a final volume of 20 μl, according to the kit instructions. The reaction mixture was incubated at 42° C. for 45 min and inactivated at 70° C. for 15 minutes. Quantitative real-time RT-PCR included 1 μl of the cDNA, 300 nM of the appropriate forward and reverse primers (according to the gene monitored) and 7.5 μl of the reaction mix containing buffer, nucleotides, Taq polymerase and SYBER green (SYBER Green master mix, Applied Biosystems), in a total reaction volume of 15 μl. Gene amplification was obtained using the GeneAmp 5700 sequence detection system (Applied Biosystems). Amplification included one stage of 10 minutes at 95° C. followed by 40 cycles of a 2-steps loop: 20 seconds at 95° C., and 1 minute at 60° C. During each annealing step, the amount of the amplified product was measured by the fluorescence of the double strand DNA binding dye, SYBER Green. The cycle of threshold (CT), representing the PCR cycle at which an increase in fluorescence above a baseline signal can be first detected, was determined for each product. A delay of one PCR cycle in the CT is translated into a two-fold decrease in starting template molecules and vice versa. The changes in the CT of the specific gene product were normalized to the changes in the CT of housekeeping cyclophilin or GAPDH as reference genes. Results were expressed as fold increase of gene expression in treated or untreated activated cells above the resting cells, after normalization to cyclophilin or GAPDH. Cells were also tested for viability to confirm that any effect on gene expression was indeed due to modulation of transcription of a specific target and not to cytoxicity.
(§6) Results were further expressed as percent inhibition of gene expression in compound treated activated cells over vehicle “treated” activated cells. Since the modulation of IL-10 and TNF-α gene expression by the compounds of the invention is relatively minor, it is not reported. […] Inhibition above 50% was considered significant.

[6] = system: iNOS; assay: Gene expression in LPS activated RAW 264.7 macrophages, iNOS; assay type: cell-based, mouse; settings: RAW 264.7, 10 μM, LPS 1 μg/ml, RNA 3 hrs after activation, vs vehicle treated activated cells
Method: as §4, §5, §6

[7] = system: MCP-1; assay: Gene expression in LPS activated RAW 264.7 macrophages, MCP-1; assay type: cell-based, mouse; settings: RAW 264.7, 10 μM, LPS 1 μg/ml, RNA 3 hrs after activation, vs vehicle treated activated cells
Method: as §4, §5, §6

T1 sequence (P21554 whole entry): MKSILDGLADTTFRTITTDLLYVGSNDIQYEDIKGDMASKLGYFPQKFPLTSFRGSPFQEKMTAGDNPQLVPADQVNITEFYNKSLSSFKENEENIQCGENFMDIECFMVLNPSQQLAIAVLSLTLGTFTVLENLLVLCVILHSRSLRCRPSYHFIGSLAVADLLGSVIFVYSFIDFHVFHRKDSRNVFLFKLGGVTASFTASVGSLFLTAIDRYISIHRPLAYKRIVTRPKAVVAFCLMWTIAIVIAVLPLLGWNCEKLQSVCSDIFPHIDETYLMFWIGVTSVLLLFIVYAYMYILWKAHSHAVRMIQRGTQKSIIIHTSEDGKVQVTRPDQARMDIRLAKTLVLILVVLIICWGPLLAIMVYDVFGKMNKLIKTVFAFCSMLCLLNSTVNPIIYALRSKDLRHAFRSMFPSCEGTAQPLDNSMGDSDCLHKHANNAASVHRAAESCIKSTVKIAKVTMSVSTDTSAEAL

Compound | EC50 [1] | Emax [1] | EC50 [2] | Emax [2] | agonistic activity toward cannabinoid receptors (in words) [2] | inhibition in vivo at 2 mg/kg [3] | inhibition in vivo at 3 mg/kg ([4]; mechanical stimulus, read-out: Percent Inhibition of Inflammatory Pain Responses, ΔForce) | inhibition in vivo at 3 mg/kg ([4]; reduction in paw swelling, read-out: Percent Inhibition of Inflammatory Pain Responses, Edema) | inhibition in vivo at 3 mg/kg ([4]; thermal stimulus, read-out: Percent Inhibition of Inflammatory Pain Responses, ΔLT) | selectivity toward CB2 [2] | Percent inhibition of gene expression, IL-1β [5] | Percent inhibition of gene expression, iNOS [6] | Percent inhibition of gene expression, MCP-1 [7] | inhibition in vivo at 20 mg/kg ([4]; 20 mg/kg i.p. (two asterisks), reduction in paw swelling, read-out: Percent Inhibition of Inflammatory Pain Responses, Edema)
CCCCCCC(C)(C)c1cc(O)c2c(c1)OC1CC(C)(C)CCC21 (centres unmarked) [Compound C6S-17, 3-(1,1-dimethylheptyl)-7,7-dimethyl-5a,6,7,8,9,9a-hexahydro-dibenzofuran-1-ol] | 2880 nM | -25% | 4 nM | 43% | agonists specific toward the CB2 receptor | 38% | 37% | 44% | 60% | – | – | – | – | –
CCCCCCC(C)(C)c1cc(O)c2c(c1)OC1C(O)CCCCC21 (single isomer, unassigned) [Compound C7S-29, 2-(,1-dimethylheptyl)-5,6,7,8,9,9a-hexahydro-4bH-10-oxa-benzo[α]azulen-4,9-diol] | 79 nM | 41% | 54 nM | 60% | agonists toward both receptors with some degree of selectivity toward the CB2 receptor | > 90% | – | – | – | non-selective agonist | – | – | – | –
CCCCCCC(C)(C)c1cc(OC(=O)C=CC(=O)O)c2c(c1)OC1C(I)CCCCC21 (stereo not drawn) [Compound C7S-28, But-2-enedioic acid mono-[2-(1,1-dimethylheptyl)-9-iodo-5,6,7,8,9,9a-hexahydro-4bH-10-oxa-benzo[α]azulen-4-yl]ester] | 217 nM | 118% | 16 nM | 44% | agonists toward both receptors with some degree of selectivity toward the CB2 receptor | 56% | – | – | – | about 10 fold | – | – | – | –
CCCCCCC(C)(C)c1cc(O)c2c(c1)OC1CCCCC21 (centres unmarked) [Compound C6S-1, 3-(1,1-Dimethylheptyl)-5a,6,7,8,9,9a-hexahydro-dibenzofuran-1-ol] | – | – | – | – | – | 39% | – | – | – | – | NO (NO indicates that the compound tested did not significantly affect the transcription of the gene assessed and that its activity is comparable to vehicle, within ±20% from this control) | NO (NO indicates that the compound tested did not significantly affect the transcription of the gene assessed and that its activity is comparable to vehicle, within ±20% from this control) | 66% | 48%
CCCCCCC(C)(C)c1cc(O)c2c(c1)OC1C(I)CCCCC21 (stereo not drawn) [Compound C7S-26, 2-(1,1-Dimethylheptyl)-9-iodo-5,6,7,8,9,9a-hexahydro-4bH-10-oxa-benzo[α]azulen-4-ol] | 20 nM | 155% | 0.07 nM | 38% | agonists toward both receptors with some degree of selectivity toward the CB2 receptor | 26% | – | – | – | about 285 fold | – | – | – | –

Source: patent US20090054376A1, “BENZOFURAN DERIVATIVES WITH THERAPEUTIC ACTIVITIES” (Pharmos Corporation, priority 2005, published 2009)
